Laboratory results as given in patent US20080275032A1, “Pyridazinone compounds” (priority 2006, published 2008).
Where a name gives a salt, the structure may show the parent alone.

Target: HCV NS5B polymerase (Hepatitis C virus genotype 1b, UniProt P26663)
Assay: biochemical
Conditions: HCV polymerase inhibition, 50 nM enzyme, 2 h at room temperature, FlashPlate [α-33P]GTP incorporation
Protocol: NS5B Polymerase Inhibition Assay (IC50)
Compounds were tested for HCV polymerase inhibition. Assays were performed in a 96-well streptavidin-coated FlashPlate using 50 nM enzyme, 0.5 μCi of [α-^33P]GTP, 0.6 μM GTP, and 50 nM 5′biotinylated oligo (rG13)/poly rC in 20 mM Tris-HCl, pH 7.5, 5 mM MgCl2, 20 mM NaCl, 5 mM dithiothreitol, and 0.1 g/L BSA. The reaction was stopped by aspiration after 2 h at room temperature and the plate was washed several times. After washing, incorporated radioactivity was counted using a Microbeta scintillation counter.

Sequence of HCV NS5B polymerase (P26663 2420-3010): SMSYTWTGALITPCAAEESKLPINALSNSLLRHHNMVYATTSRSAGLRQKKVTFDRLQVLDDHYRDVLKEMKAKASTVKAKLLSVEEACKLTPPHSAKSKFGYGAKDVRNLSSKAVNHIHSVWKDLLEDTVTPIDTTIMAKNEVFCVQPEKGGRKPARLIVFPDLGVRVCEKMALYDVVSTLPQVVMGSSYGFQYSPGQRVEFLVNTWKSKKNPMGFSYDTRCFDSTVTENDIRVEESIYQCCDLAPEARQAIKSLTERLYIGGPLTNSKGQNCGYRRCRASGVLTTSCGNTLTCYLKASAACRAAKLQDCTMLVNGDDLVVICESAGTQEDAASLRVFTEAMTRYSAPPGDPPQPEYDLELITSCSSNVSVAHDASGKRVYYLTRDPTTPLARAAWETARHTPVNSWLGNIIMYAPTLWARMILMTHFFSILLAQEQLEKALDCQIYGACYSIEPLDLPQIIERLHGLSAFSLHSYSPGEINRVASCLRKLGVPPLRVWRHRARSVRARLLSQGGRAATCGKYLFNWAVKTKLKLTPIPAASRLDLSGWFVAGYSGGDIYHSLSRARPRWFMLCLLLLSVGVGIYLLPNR

For `CCC(C)CCn1nc(-c2cccs2)c(O)c(C2=NS(=O)(=O)c3cc(NS(C)(=O)=O)ccc3N2)c1=O` (stereo not shown) [N-{3-[5-Hydroxy-2-(3-methyl-pentyl)-3-oxo-6-thiophen-2-yl-2,3-dihydro-pyridazin-4-yl]-1,1-dioxo-1,2-dihydro-1λ^6-benzo[1,2,4]thiadiazin-7-yl}-methanesulfonamide], the IC50 was < 100 nM.
With `CC(C)CC(C)n1nc(-c2cccs2)c(O)c(C2=NS(=O)(=O)c3cc(NS(C)(=O)=O)ccc3N2)c1=O` (stereo not shown) [N-{3-[2-(1,3-Dimethyl-butyl)-5-hydroxy-3-oxo-6-thiophen-2-yl-2,3-dihydro-pyridazin-4-yl]-1,1-dioxo-1,2-dihydro-1λ^6-benzo[1,2,4]thiadiazin-7-yl}-methanesulfonamide] the IC50 was 100 to 1000 nM.
For `COCCn1nc(-c2cccs2)c(O)c(C2=NS(=O)(=O)c3cc(NS(C)(=O)=O)ccc3N2)c1=O` [N-{3-[5-Hydroxy-2-(2-methoxy-ethyl)-3-oxo-6-thiophen-2-yl-2,3-dihydro-pyridazin-4-yl]-1,1-dioxo-1,2-dihydro-1λ^6-benzo[1,2,4]thiadiazin-7-yl}-methanesulfonamide], the IC50 was < 100 nM.
In the case of `CC(C)CCn1nc(-c2cccs2)c(O)c(C2=NS(=O)(=O)c3cc(N4CCCS4(=O)=O)ccc3N2)c1=O` [4-[7-(1,1-Dioxo-1l6-isothiazolidin-2-yl)-1,1-dioxo-1,2-dihydro-1λ^6-benzo[1,2,4]thiadiazin-3-yl]-5-hydroxy-2-(3-methyl-butyl)-6-thiophen-2-yl-2H-pyridazin-3-one], the IC50 is reported as 100 to 1000 nM.
For `CS(=O)(=O)Nc1ccc2c(c1)S(=O)(=O)NC(c1c(O)c(-c3cncs3)nn(CC3CCC3)c1=O)=N2` [N-[3-(2-Cyclobutylmethyl-5-hydroxy-3-oxo-6-thiazol-5-yl-2,3-dihydro-pyridazin-4-yl)-1,1-dioxo-1,2-dihydro-1λ^6-benzo[1,2,4]thiadiazin-7-yl]-methanesulfonamide], the IC50 was < 100 nM.
For `CC(C)CCn1nc(-c2ccn(C)c2)c(O)c(C2=Nc3ccc(NS(C)(=O)=O)cc3S(=O)(=O)N2)c1=O` [N-{3-[5-Hydroxy-2-(3-methyl-butyl)-6-(1-methyl-1H-pyrrol-3-yl)-3-oxo-2,3-dihydro-pyridazin-4-yl]-1,1-dioxo-1,2-dihydro-1λ^6-benzo[1,2,4]thiadiazin-7-yl}-methanesulfonamide], the IC50 was < 100 nM.
In the case of `CS(=O)(=O)Nc1ccc2c(c1)S(=O)(=O)N=C(c1c(O)c(-c3cccs3)nn(Cc3ccc(F)cc3)c1=O)N2` [N-{3-[2-(4-Fluoro-benzyl)-5-hydroxy-3-oxo-6-thiophen-2-yl-2,3-dihydro-pyridazin-4-yl]-1,1-dioxo-1,2-dihydro-1λ^6-benzo[1,2,4]thiadiazin-7-yl}-methanesulfonamide], the IC50 is reported as < 100 nM.
`CS(=O)(=O)Nc1ccc2c(c1)S(=O)(=O)NC(c1c(O)c(-c3ccccc3)nn(CC3CC3)c1=O)=N2` [N-[3-(2-Cyclopropylmethyl-5-hydroxy-3-oxo-6-phenyl-2,3-dihydro-pyridazin-4-yl)-1,1-dioxo-1,2-dihydro-1l6-benzo[1,2,4]thiadiazin-7-yl]-methanesulfonamide] gave an IC50 of 100 to 1000 nM.
With `CC(C)CCn1nc(-c2cncs2)c(O)c(C2=Nc3ccc(NS(=O)(=O)C4CC4)cc3S(=O)(=O)N2)c1=O` [Cyclopropanesulfonic acid {3-[5-hydroxy-2-(3-methyl-butyl)-3-oxo-6-thiazol-5-yl-2,3-dihydro-pyridazin-4-yl]-1,1-dioxo-1,2-dihydro-1λ^6-benzo[1,2,4]thiadiazin-7-yl}-amide] the IC50 was < 100 nM.
In the case of `CS(=O)(=O)Nc1ccc2c(c1)S(=O)(=O)N=C(c1c(O)c(-c3cccs3)nn(CCC3CC3)c1=O)N2` [N-{3-[2-(2-Cyclopropyl-ethyl)-5-hydroxy-3-oxo-6-thiophen-2-yl-2,3-dihydro-pyridazin-4-yl]-1,1-dioxo-1,2-dihydro-1λ^6-benzo[1,2,4]thiadiazin-7-yl}-methanesulfonamide], the IC50 is reported as < 100 nM.
With `CC(C)CCn1nc(-c2cc[nH]c2)c(O)c(C2=Nc3ccc(NS(C)(=O)=O)cc3S(=O)(=O)N2)c1=O` [N-{3-[5-Hydroxy-2-(3-methyl-butyl)-3-oxo-6-(1H-pyrrol-3-yl)-2,3-dihydro-pyridazin-4-yl]-1,1-dioxo-1,2-dihydro-1λ^6-benzo[1,2,4]thiadiazin-7-yl}-methanesulfonamide] the IC50 was < 100 nM.
`O=c1c(C2=Nc3ccc(NS(=O)(=O)C4CC4)cc3S(=O)(=O)N2)c(O)c(-c2cccs2)nn1CCC1CC1` [Cyclopropanesulfonic acid {3-[2-(2-cyclopropyl-ethyl)-5-hydroxy-3-oxo-6-thiophen-2-yl-2,3-dihydro-pyridazin-4-yl]-1,1-dioxo-1,2-dihydro-1λ^6-benzo[1,2,4]thiadiazin-7-yl}-amide] was tested, and the IC50 was < 100 nM.
In the case of `CC(C)(C)CCn1nc(-c2cccs2)c(O)c(C2=Nc3ccc(NS(C)(=O)=O)cc3S(=O)(=O)N2)c1=O` [N-{3-[2-(3,3-dimethyl-butyl)-5-hydroxy-3-oxo-6-thiophen-2-yl-2,3-dihydro-pyridazin-4-yl]-1,1-dioxo-1,2-dihydro-1λ^6-benzo[1,2,4]thiadiazin-7-yl}-methanesulfonamide, sodium salt], the IC50 is reported as < 100 nM.
For `COC(C)(C)CCn1nc(-c2cccs2)c(O)c(C2=NS(=O)(=O)c3cc(NS(C)(=O)=O)ccc3N2)c1=O` [N-{3-[5-Hydroxy-2-(3-methoxy-3-methyl-butyl)-3-oxo-6-thiophen-2-yl-2,3-dihydro-pyridazin-4-yl]-1,1-dioxo-1,2-dihydro-1λ^6-benzo[1,2,4]thiadiazin-7-yl}-methanesulfonamide], the IC50 was < 100 nM.
With `CC(C)=Cc1nn(CCC2CC2)c(=O)c(C2=Nc3ccc(NS(C)(=O)=O)cc3S(=O)(=O)N2)c1O` [N-{3-[2-(2-Cyclopropyl-ethyl)-5-hydroxy-6-(2-methyl-propenyl)-3-oxo-2,3-dihydro-pyridazin-4-yl]-1,1-dioxo-1,2-dihydro-1λ^6-benzo[1,2,4]thiadiazin-7-yl}-methanesulfonamide] the IC50 was < 100 nM.
With `CCS(=O)(=O)Nc1ccc2c(c1)S(=O)(=O)NC(c1c(O)c(-c3cncs3)nn(CCC(C)C)c1=O)=N2` [Ethanesulfonic acid {3-[5-hydroxy-2-(3-methyl-butyl)-3-oxo-6-thiazol-5-yl-2,3-dihydro-pyridazin-4-yl]-1,1-dioxo-1,2-dihydro-1λ^6-benzo[1,2,4]thiadiazin-7-yl}-amide] the IC50 was < 100 nM.
`CN(c1ccc2c(c1)S(=O)(=O)NC(c1c(O)c(-c3cccs3)nn(CC3(C(F)(F)F)CC3)c1=O)=N2)S(C)(=O)=O` [N-{3-[5-Hydroxy-3-oxo-6-thiophen-2-yl-2-(1-trifluoromethyl-cyclopropylmethyl)-2,3-dihydro-pyridazin-4-yl]-1,1-dioxo-1,2-dihydro-1λ^6-benzo[1,2,4]thiadiazin-7-yl}-N-methyl-methanesulfonamide] was tested, and the IC50 was < 100 nM.
Molecule `CC(C)(C)c1nn(Cc2ccc(F)c(Cl)c2)c(=O)c(C2=Nc3ccc(NS(C)(=O)=O)cc3S(=O)(=O)N2)c1O` [N-{3-[6-tert-Butyl-2-(3-chloro-4-fluoro-benzyl)-5-hydroxy-3-oxo-2,3-dihydro-pyridazin-4-yl]-1,1-dioxo-1,2-dihydro-1λ^6-benzo[1,2,4]thiadiazin-7-yl}-methanesulfonamide] has an IC50 of 100 to 1000 nM.
`CC(C)CCn1nc(-c2ccccc2)c(O)c(C2=Nc3ccc(NS(C)(=O)=O)cc3S(=O)(=O)N2)c1=O` [N-{3-[5-Hydroxy-2-(3-methyl-butyl)-3-oxo-6-phenyl-2,3-dihydro-pyridazin-4-yl]-1,1-dioxo-1,2-dihydro-1λ^6-benzo[1,2,4]thiadiazin-7-yl}-methanesulfonamide] was tested, and the IC50 was < 100 nM.
`CC(C)CCn1nc(-c2cccs2)c(O)c(C2=Nc3ccc(C4CCCS4(=O)=O)cc3S(=O)(=O)N2)c1=O` (stereo not shown) [4-[7-(1,1-Dioxo-tetrahydro-1l6-thiophen-2-yl)-1,1-dioxo-1,2-dihydro-1λ^6-benzo[1,2,4]thiadiazin-3-yl]-5-hydroxy-2-(3-methyl-butyl)-6-thiophen-2-yl-2H-pyridazin-3-one] gave an IC50 of 100 to 1000 nM.
In the case of `CC(C)=Cc1nn(CCC(C)C)c(=O)c(C2=NS(=O)(=O)c3cc(NS(C)(=O)=O)ccc3N2)c1O` [N-{3-[5-Hydroxy-2-(3-methyl-butyl)-6-(2-methyl-propenyl)-3-oxo-2,3-dihydro-pyridazin-4-yl]-1,1-dioxo-1,2-dihydro-1λ^6-benzo[1,2,4]thiadiazin-7-yl}-methanesulfonamide], the IC50 is reported as < 100 nM.
With `CS(=O)(=O)Nc1ccc2c(c1)S(=O)(=O)NC(c1c(O)c(-c3cccs3)nn(CC3CCC3)c1=O)=N2` [N-[3-(2-Cyclobutylmethyl-5-hydroxy-3-oxo-6-thiophen-2-yl-2,3-dihydro-pyridazin-4-yl)-1,1-dioxo-1,2-dihydro-1λ^6-benzo[1,2,4]thiadiazin-7-yl]-methanesulfonamide] the IC50 was < 100 nM.
In the case of `C/C(=C\c1nn(CCC(C)C)c(=O)c(C2=NS(=O)(=O)c3cc(NS(C)(=O)=O)ccc3N2)c1O)C(F)(F)F` [N-{3-[5-Hydroxy-2-(3-methyl-butyl)-3-oxo-6-(3,3,3-trifluoro-2-methyl-propenyl)-2,3-dihydro-pyridazin-4-yl]-1,1-dioxo-1,2-dihydro-1λ^6-benzo[1,2,4]thiadiazin-7-yl}-methanesulfonamide], the IC50 is reported as 100 to 1000 nM.
With `CS(=O)(=O)Nc1ccc2c(c1)S(=O)(=O)N=C(c1c(O)c(-c3cccs3)nn(Cc3ccccc3)c1=O)N2` [N-[3-(2-Benzyl-5-hydroxy-3-oxo-6-thiophen-2-yl-2,3-dihydro-pyridazin-4-yl)-1,1-dioxo-1,2-dihydro-1λ^6-benzo[1,2,4]thiadiazin-7-yl]-methanesulfonamide] the IC50 was < 100 nM.
With `CC(C)CCn1nc(-c2cccs2)c(O)c(C2=Nc3ccc(N(COCc4ccccc4)S(C)(=O)=O)cc3S(=O)(=O)N2)c1=O` [N-Benzyloxymethyl-N-{3-[5-hydroxy-2-(3-methyl-butyl)-3-oxo-6-thiophen-2-yl-2,3-dihydro-pyridazin-4-yl]-1,1-dioxo-1,2-dihydro-1λ^6-benzo[1,2,4]thiadiazin-7-yl}-methanesulfonamide] the IC50 was 1000 to 10000 nM.
